Source: patent publication US7772241B2, “Variolin derivatives and their use as antitumor agents” (Pharma Mar S.A., priority 2001, dated 2010)
Where two headings read alike, the source gives them in different places.

Key:
SK-BR-3 = experiment: Inhibition of cells growth by colorimetric (SRB) assay, SK-BR-3
Summary of the method: (§1)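 Human tumour cells seeded at 5×10^3/well in RPMI 1640 10% FBS, attached 18 h, then exposed 48 h to samples at 10 to 10^−8 μg/ml in DMSO/EtOH/PBS (0.5:0.5:99). Growth read by SRB staining after TCA fixation, OD 490 nm, triplicate wells; GI, TGI and LC derived.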

HMEC1 = experiment: Inhibition of cells growth by colorimetric (SRB) assay, HMEC1; conditions: for TGI H-MEC-1: in M (unit assumed); for CC50: read-out: LC50 H-MEC-1
From the text: The finality of these assays is to interrupt the growth of a “in vitro” tumor cell culture by means a continued exhibition of the cells to the sample to be testing.
This form of the assay employs 96 well cell culture microplates of 9 mm diameter (Faircloth, 1988; Mosmann, 1983). Most of the cell lines are obtained from American Type Culture Collection (ATCC) derived from different human cancer types.
Cells are maintained in RPMI 1640 10% FBS, supplemented with 0.1 g/l penicillin and 0.1 g/l streptomycin sulphate and then incubated at 37° C., 5% CO2 and 98% humidity. For the experiments, cells were harvested from subconfluent cultures using trypsin and resuspended in fresh medium before plating.
Cells are seeded in 96 well microtiter plates, at 5×10^3 cells per well in aliquots of 195 μl medium, and they are allowed to attach to the plate surface by growing in drug free medium for 18 hours. Afterward, samples are added in aliquots of 5 μl in a ranging from 10 to 10^−8 μg/ml, dissolved in DMSO/EtOH/PBS (0.5:0.5:99). After 48 hours exposure, the antitumor effect are measured by the SRB methodology: cells are fixed by adding 50 μl of cold 50% (wt/vol) trichloroacetic acid (TCA) and incubating for 60 minutes at 4° C. Plates are washed with deionized water and dried. One hundred μl of SRB solution (0.4% wt/vol in 1% acetic acid) is added to each microtiter well and incubated for 10 minutes at room temperature. Unbound SRB is removed by washing with 1% acetic acid. Plates are air dried and bound stain is solubilized with Tris buffer. Optical densities are read on a automated spectrophotometric plate reader at a single wavelength of 490 nm.
The values for mean +/−SD of data from triplicate wells are calculated. Some parameters for cellular responses can be calculated: GI=growth inhibition, TGI=total growth inhibition (cytostatic effect) and LC=cell killing (cytotoxic effect).

SK-OV-3 = experiment: Inhibition of cells growth by colorimetric (SRB) assay, SK-OV-3
Summary of the method: as §1

DU-145 = experiment: Inhibition of cells growth by colorimetric (SRB) assay, DU-145
Summary of the method: as §1

HT-29 = experiment: Inhibition of cells growth by colorimetric (SRB) assay, HT-29; conditions: for GI50: read-out: GI50 HT-29
Summary of the method: as §1

A-549 = experiment: Inhibition of cells growth by colorimetric (SRB) assay, A-549; conditions: for GI50: read-out: GI50 A-549
Summary of the method: as §1

PANC-1 = experiment: Inhibition of cells growth by colorimetric (SRB) assay, PANC-1; conditions: for TGI PANC-1 / GI50: SRB assay, 48 hours exposure; for GI50: read-out: GI50 PANC-1
Summary of the method: as §1

K-562 = experiment: Inhibition of cells growth by colorimetric (SRB) assay, K-562; conditions: for GI50: read-out: GI50 K-562
Summary of the method: as §1

SK-MEL-28 = experiment: Inhibition of cells growth by colorimetric (SRB) assay, SK-MEL-28
Summary of the method: as §1

IGROV-1 = experiment: Inhibition of cells growth by colorimetric (SRB) assay, IGROV-1
Summary of the method: as §1

IGROV-ET = experiment: Inhibition of cells growth by colorimetric (SRB) assay, IGROV-ET
Summary of the method: as §1

LoVo = experiment: Inhibition of cells growth by colorimetric (SRB) assay, LoVo; conditions: for CC50: read-out: LC50 LOVO
Summary of the method: as §1

LNCaP = experiment: Inhibition of cells growth by colorimetric (SRB) assay, LNCaP; conditions: for GI50: read-out: GI50 LN-caP
Summary of the method: as §1

LoVo-Dox = experiment: Inhibition of cells growth by colorimetric (SRB) assay, LoVo-Dox
Summary of the method: as §1

In the case of `Cc1ccc2c(-c3ccnc(N)n3)c3ccnc(N)n3c2n1.Cl` [Compound 44], the GI50 (SK-BR-3; Homo sapiens, SK-BR-3, 48 h, read-out: GI50 SK-BR-3, SRB assay, 48 hours exposure) is reported as 0.612 µM, the CC50 (SK-BR-3; Homo sapiens, SK-BR-3, 48 h, read-out: LC50 SK-BR-3, SRB assay, 48 hours exposure) is reported as 6.31 µM and the “TGI SK-BR-3” value (SK-BR-3; SRB assay, 48 hours exposure) is reported as 1.61E−06. The GI50 (HMEC1; Homo sapiens, HMEC-1, 48 h, read-out: GI50 H-MEC-1, SRB assay, 48 hours exposure) was 0.158 µM, the “TGI H-MEC-1” value (HMEC1; SRB assay, 48 hours exposure) was 3.07E−07 and the CC50 (HMEC1; SRB assay, 48 hours exposure) was 1.31 µM. For the same compound, the CC50 (SK-OV-3; Homo sapiens, SK-OV-3, 48 h, read-out: LC50 SKOV-3, SRB assay, 48 hours exposure) was 27.5 µM, the “TGI SKOV-3” value (SK-OV-3; SRB assay, 48 hours exposure) was 2.75E−05 and the GI50 (DU-145; Homo sapiens, DU-145, 48 h, read-out: GI50 DU-145, SRB assay, 48 hours exposure) was 0.475 µM. For the same compound, the “TGI DU-145” value (DU-145; SRB assay, 48 hours exposure) was 1.51E−06, the CC50 (HT-29; Homo sapiens, HT-29, 48 h, read-out: LC50 HT-29, SRB assay, 48 hours exposure) was 27.5 µM and the “TGI HT-29” value (HT-29; SRB assay, 48 hours exposure) was 1.09E−05. The GI50 (HT-29; SRB assay, 48 hours exposure) was 1.09 µM, the CC50 (A-549; Homo sapiens, A549, 48 h, read-out: LC50 A-549, SRB assay, 48 hours exposure) was 27.5 µM and the “TGI A-549” value (A-549; SRB assay, 48 hours exposure) was 2.75E−05. For the same compound, the GI50 (A-549; SRB assay, 48 hours exposure) was 9.17 µM, the CC50 (PANC-1; Homo sapiens, PANC-1, 48 h, read-out: LC50 PANC-1, SRB assay, 48 hours exposure) was 27.5 µM and the “TGI PANC-1” value (PANC-1) was 9.94E−06. For the same compound, the GI50 (PANC-1) was 1.71 µM, the CC50 (K-562; Homo sapiens, K562, 48 h, read-out: LC50 K-562, SRB assay, 48 hours exposure) was 27.5 µM and the “TGI K-562” value (K-562; SRB assay, 48 hours exposure) was 2.75E−05. It also gave a GI50 (K-562; SRB assay, 48 hours exposure) of 4.17 µM, a GI50 (SK-MEL-28; Homo sapiens, SK-MEL-28, 48 h, read-out: GI50 MEL-28, SRB assay, 48 hours exposure) of 0.601 µM and a CC50 (SK-MEL-28; Homo sapiens, SK-MEL-28, 48 h, read-out: LC50 MEL-28, SRB assay, 48 hours exposure) of 8.95 µM. For the same compound, the “TGI MEL-28” value (SK-MEL-28; SRB assay, 48 hours exposure) was 2.11E−06, the GI50 (IGROV-1; Homo sapiens, IGROV-1, 48 h, read-out: GI50 IGROV, SRB assay, 48 hours exposure) was 1.08 µM and the CC50 (IGROV-1; Homo sapiens, IGROV-1, 48 h, read-out: LC50 IGROV, SRB assay, 48 hours exposure) was 24.6 µM. For the same compound, the “TGI IGROV” value (IGROV-1; SRB assay, 48 hours exposure) was 6.34E−06, the GI50 (IGROV-ET; Homo sapiens, 48 h, read-out: GI50 IGROV-ET, SRB assay, 48 hours exposure) was 0.568 µM and the CC50 (IGROV-ET; Homo sapiens, 48 h, read-out: LC50 IGROV-ET, SRB assay, 48 hours exposure) was 17.2 µM. For the same compound, the “TGI IGROV-ET” value (IGROV-ET; SRB assay, 48 hours exposure) was 1.87E−06, the GI50 (LoVo; Homo sapiens, LoVo, 48 h, read-out: GI50 LOVO, SRB assay, 48 hours exposure) was 0.456 µM and the “TGI LOVO” value (LoVo; SRB assay, 48 hours exposure) was 1.13E−06. For the same compound, the CC50 (LoVo; SRB assay, 48 hours exposure) was 2.75 µM, the “TGI LN-caP” value (LNCaP; SRB assay, 48 hours exposure) was 7.85E−07 and the GI50 (LNCaP; SRB assay, 48 hours exposure) was 0.351 µM. The CC50 (LNCaP; read-out: LC50 LN-caP, SRB assay, 48 hours exposure) was 1.76 µM, the GI50 (LoVo-Dox; Homo sapiens, 48 h, read-out: GI50 LOVO-DOX, SRB assay, 48 hours exposure) was 0.777 µM and the CC50 (LoVo-Dox; Homo sapiens, 48 h, read-out: LC50 LOVO-DOX, SRB assay, 48 hours exposure) was 23.5 µM. The “TGI LOVO-DOX” value (LoVo-Dox; SRB assay, 48 hours exposure) was 3.27E−06.

`COc1nccc(-c2c3cccnc3n3c(N)nccc23)n1` [Compound 76] was tested, and the “TGI SK-BR-3” value (SK-BR-3; SRB assay, 48 hours exposure) was 1.21E−06, the GI50 (SK-BR-3; read-out: GI50 SK-BR-3, SRB assay, 48 hours exposure) was 0.541 µM and the CC50 (SK-BR-3; read-out: LC50 SK-BR-3, SRB assay, 48 hours exposure) was 2.71 µM. The “TGI H-MEC-1” value (HMEC1; SRB assay, 48 hours exposure) was 2.27E−07, the GI50 (HMEC1; read-out: GI50 H-MEC-1, SRB assay, 48 hours exposure) was 0.0777 µM and the CC50 (HMEC1; SRB assay, 48 hours exposure) was 1.56 µM. The GI50 (SK-OV-3; Homo sapiens, SK-OV-3, 48 h, read-out: GI50 SKOV-3, SRB assay, 48 hours exposure) was 1.22 µM, the “TGI SKOV-3” value (SK-OV-3; SRB assay, 48 hours exposure) was 3.42E−06 and the CC50 (SK-OV-3; read-out: LC50 SKOV-3, SRB assay, 48 hours exposure) was 34.3 µM. The “TGI DU-145” value (DU-145; SRB assay, 48 hours exposure) was 1.42E−06, the GI50 (DU-145; read-out: GI50 DU-145, SRB assay, 48 hours exposure) was 0.542 µM and the CC50 (DU-145; read-out: LC50 DU-145, SRB assay, 48 hours exposure) was 3.42 µM. For the same compound, the “TGI HT-29” value (HT-29; SRB assay, 48 hours exposure) was 3.42E−06, the GI50 (HT-29; SRB assay, 48 hours exposure) was 0.77 µM and the CC50 (HT-29; read-out: LC50 HT-29, SRB assay, 48 hours exposure) was ≥ 34.2 µM. For the same compound, the “TGI A-549” value (A-549; SRB assay, 48 hours exposure) was 1.49E−06, the GI50 (A-549; SRB assay, 48 hours exposure) was 0.407 µM and the CC50 (A-549; read-out: LC50 A-549, SRB assay, 48 hours exposure) was 7.7 µM. For the same compound, the “TGI PANC-1” value (PANC-1) was 2.15E−06, the GI50 (PANC-1) was 0.65 µM and the “TGI K-562” value (K-562; SRB assay, 48 hours exposure) was 2.28E−06. The GI50 (K-562; SRB assay, 48 hours exposure) was 1.02 µM, the CC50 (K-562; read-out: LC50 K-562, SRB assay, 48 hours exposure) was 5.92 µM and the “TGI MEL-28” value (SK-MEL-28; SRB assay, 48 hours exposure) was 8.01E−07. For the same compound, the GI50 (SK-MEL-28; read-out: GI50 MEL-28, SRB assay, 48 hours exposure) was 0.359 µM, the CC50 (SK-MEL-28; read-out: LC50 MEL-28, SRB assay, 48 hours exposure) was 1.79 µM and the “TGI IGROV” value (IGROV-1; SRB assay, 48 hours exposure) was 1.77E−06. For the same compound, the GI50 (IGROV-1; read-out: GI50 IGROV, SRB assay, 48 hours exposure) was 0.725 µM, the CC50 (IGROV-1; read-out: LC50 IGROV, SRB assay, 48 hours exposure) was 3.42 µM and the “TGI IGROV-ET” value (IGROV-ET; SRB assay, 48 hours exposure) was 2.04E−06. For the same compound, the GI50 (IGROV-ET; read-out: GI50 IGROV-ET, SRB assay, 48 hours exposure) was 0.649 µM, the CC50 (IGROV-ET; read-out: LC50 IGROV-ET, SRB assay, 48 hours exposure) was ≥ 34.2 µM and the “TGI LOVO” value (LoVo; SRB assay, 48 hours exposure) was 6.81E−07. The GI50 (LoVo; read-out: GI50 LOVO, SRB assay, 48 hours exposure) was 0.163 µM, the CC50 (LoVo; SRB assay, 48 hours exposure) was ≥ 34.2 µM and the CC50 (LNCaP; Homo sapiens, LNCaP, 48 h, read-out: LC50 LN-caP, SRB assay, 48 hours exposure) was 3.08 µM. For the same compound, the “TGI LN-caP” value (LNCaP; SRB assay, 48 hours exposure) was 4.55E−07, the GI50 (LNCaP; SRB assay, 48 hours exposure) was 0.0729 µM and the “TGI LOVO-DOX” value (LoVo-Dox; SRB assay, 48 hours exposure) was 3.42E−07. For the same compound, the GI50 (LoVo-Dox; read-out: GI50 LOVO-DOX, SRB assay, 48 hours exposure) was 0.773 µM and the CC50 (LoVo-Dox; read-out: LC50 LOVO-DOX, SRB assay, 48 hours exposure) was ≥ 34.2 µM.
